Reference: US20250144053A1, “A MIXTURE OF UREA, BIURET AND NITRATE AS A DIETARY NON-PROTEIN NITROGEN-SOURCE FOR RUMINANTS AND USES THEREOF” (Yara International ASA, priority 2022, published 2025)

How the values were obtained:
[1] = tested on: crossbred yearling steers; assay: Animal growth performance with NPN supplementation (Example 2); assay type: in vivo
Source text: A total of 72 crossbred yearling steers [303 kg±29 kg initial body weight (BW) were stratified by body weight (BW) and randomly allocated to three treatments. All steers consumed a basal diet of corn silage, cotton-gin trash, and a premix of vitamins and minerals.
The steers were housed in pens (8 steers/pen, 3 pens/treatment). The steers were supplemented with three different NPN-sources on an isonitrogenous basis, considering as reference the N provided by urea when included at 1 wt. % of the diet in dry matter (DM-basis.
In Table 5, the composition of the basal diet supplemented with three different types of NPN, i.e. urea (Urea) (46% N, Yara International), a mixture of urea and biuret (UB) (41% N) and a mixture of urea, biuret and nitrate according to the present disclosure (“UBN”) (35% N, 21.3% NO3) is shown.
From day −17 to day −16 relative to the beginning of the experimental period, the steers received 20% of their total supplemental NPN.
From day −15 to day −12 relative to the beginning of the experimental period, the steers received 40% of their total supplemental NPN.
From day −11 to day −8 relative to the beginning of the experimental period, the steers received 60% of their total supplemental NPN.
From day −7 to day −3 relative to the beginning of the experimental period, the steers received 80% of their total supplemental NPN.
From day −2 to the beginning of the experimental period (day 0), the steers received 100% of their total supplemental NPN.
The gain to feed ratio (G: F) was computed as the ratio of the average daily gain (ADG) to daily dry matter intake (DMI). The feed intake was recorded daily. The individual intake was determined via the GrowSafe® intake monitoring system. In cattle management, GrowSafe Systems is a commonly used tool to closely monitor individual animal feeding data using radio frequency identification (RFID) tag technology. The animals are equipped with a unique RFID tag that is read by the feed bunks each time the animal lowers its head into the bunk to consume feed. Average daily weight gain (ADG) and feed efficiency were calculated during the performance evaluation. The ADG was determined by the difference between the final BW and the initial BW divided by the number of days of the performance evaluation (56 days). The initial BW was calculated as the average unshrunk BW of heifers on days 16 and 17. The final BW was the average unshrunk BW measured on days 72 and 73. The unshrunk BW was obtained every 14 days.
In Table 6, the effect of NPN supplementation with Urea, UB and UBN on growth performance is shown. More in particular, the initial and the final BW and the ADG, all expressed in kg, the dry matter intake (DMI) expressed in kg/day and in percentage of BW, the gain to feed ratio (G:F) expressed in kg/kg, the net energy of gain (NEg) expressed in Mcal/kg of DM and the plasma urea nitrogen (PUN) expressed in […] are shown.

[2] = tested on: ruminal fluid (rumen microbes); assay: In vitro methane production in batch culture (Example 1); assay type: cell-based, Angus crossbred steers; settings: corn silage-based diet
Method: The in vitro incubations were conducted on three separate days (replicates). A representative sample of digesta was collected from different places in the rumen of ruminally cannulated steers and strained through 4 layers of cheesecloth, placed in pre-warmed thermos containers, and transported to the laboratory within 30 minutes after the collection. In the laboratory, the ruminal fluid from the two steers was maintained under constant CO2-flux and was combined in equal proportions. This combined ruminal fluid was mixed with McDougall's buffer (McDougall, 1948) with and without 0.077 g/liter of 10 wt. % ammonium sulfate enriched with ^15N in relation 1:4, and it was used as an inoculum. […] At the end of the 24 hours incubation, the final pH was recorded, the bottles were placed on ice to prevent further microbial fermentation and two 10-ml samples were collected and acidified by adding 20 μl of a 20 vol/vol % of H2SO4-solution and were frozen at minus 20° C. until further analysis. […]
The amount of methane produced was determined by measuring total gas production and the contribution of methane to it. The production of gas was recorded using an Ankom Gas Monitoring System from Ankom Technologies. […] A gas subsample was analyzed to measure methane concentration and calculate the total methane production during the fermentation. […]

## NC(N)=O [Urea, urea]
[1]; days 0-14
  ADG: 0.78 kg
  G:F: 0.10 kg/kg
[1]; days 0-28
  ADG: 0.81 kg
  G:F: 0.11 kg/kg
[1]; days 0-42
  G:F: 0.14 kg/kg
[1]; days 0-56
  G:F: 0.14 kg/kg
[1]; net energy of gain
  NEg: 0.55 Mcal/kg of DM
[2]; per g organic matter digested
  Methane production, mM/g OMd: 6.86 mM/g OMd
[2]; per g organic matter incubated
  Methane production, mM/g OMi: 1.23 mM/g OMi
